Eleven compounds from US20050288283A1, “Topical formulations for treating allergic diseases” (Alcon, Inc., priority 2004, published 2005) can be followed below.

Structures can show the parent of a compound that is named as a salt.

Data set [1] has as its system human conjunctival tissue mast cells. The data set can be described thus: Histamine release from human conjunctival mast cells (anti-human IgE challenge). Format: cell-based. To be noted: Mast cell; goat-anti-human IgE 10 μg/mL challenge 15 min, after 1 or 15 minutes drug treatment; read-out: Human Conjunctiva Mast Cell Histamine Release IC50. As for the experimental part:
Methods detailing preparation of monodispersed human conjunctival tissue mast cell and mediator release studies with these cells have been described (Miller et al. 1996). Briefly, human conjunctival tissue mast cells were isolated from post-mortem tissue donors obtained within 8 hours of death by various eye banks and transported in Optisol® corneal preservation medium. Tissues were enzymatically digested by repeated exposure (30 min. at 37° C.) to collagenase and hyaluronidase (2× with 200 U each/gm tissue, then 2-4× with 2000 U each/gm tissue) in Tyrode's buffer containing 0.1% gelatin. Each digestion mixture was filtered over Nitex® cloth (100 μm mesh) and washed with an equal volume of buffer. Filtrates were centrifuged at 825×g (7 min). Pellets were resuspended in buffer then combined for enrichment over a […] Percoll® cushion. The enriched pellet was washed and resuspended in supplemented RPMI 1640 medium for equilibration at 37° C.
Cells were harvested from the culture plate and counted for viability (trypan blue exclusion) and mast cell number (toluidine blue 0). Mast cells (5000/tube; 1 mL final volume) were challenged (37° C.) for 15 min with goat-anti-human IgE (10 μg/mL) following treatment (1 or 15 minutes; 37° C.) with test drug or Tyrode's buffer. Total and non-specific release controls were exposed to 0.1% Triton X-100 and goat IgG (10 μg/mL), respectively. The reaction was terminated by centrifugation (500×g, 4° C., 10 min). Supernatants were stored at −20° C. until analyzed for histamine content by R I A Miller, S. et al., Ocular Immunology and Inflammation 4(1): 39-49 (1996).

Data set [2] has as its system Histamine induced vascular permeability in guinea pig conjunctiva. Nature of the data set: Histamine induced vascular permeability in guinea pig conjunctiva. To be noted: topical 20 μl onto eye, 30 min before subconjunctival histamine. Format: in vivo. As to the method: Male Dunkin Hartley Viral Antibody Free out bread guinea pigs (Charles River Labs, Portage, Mich.), 250-350 grams, (6/group) were injected intravenously (i.v.) via the marginal ear vein with 1.0 ml of Evans Blue dye (1.0 mg/ml). Forty-five (45) min post dye injection, 20 μl of test compound or vehicle was applied topically onto one eye of each experimental animal. Thirty (30) min following topical drug application, guinea pigs were anesthetized and challenged subconjunctivally with histamine (300 ng/10 μl). Responses were quantitated as previously described by Yanni, J. M., Weimer, L. K., Glaser, R. K., Lang, L. S., Robertson, S. M., and Spellman, J. M. Int. Arch. Allergy Immunol. 101:102-106, 1993

In data set [3] the target is T1, H1 histamine receptor (Cavia porcellus, UniProt P31389).
T1 construct: tissue Pel-Freez (Rogers, Ark.); host or cells: guinea pig forebrain homogenate (washed membranes)
T1 sequence (P31389 whole entry): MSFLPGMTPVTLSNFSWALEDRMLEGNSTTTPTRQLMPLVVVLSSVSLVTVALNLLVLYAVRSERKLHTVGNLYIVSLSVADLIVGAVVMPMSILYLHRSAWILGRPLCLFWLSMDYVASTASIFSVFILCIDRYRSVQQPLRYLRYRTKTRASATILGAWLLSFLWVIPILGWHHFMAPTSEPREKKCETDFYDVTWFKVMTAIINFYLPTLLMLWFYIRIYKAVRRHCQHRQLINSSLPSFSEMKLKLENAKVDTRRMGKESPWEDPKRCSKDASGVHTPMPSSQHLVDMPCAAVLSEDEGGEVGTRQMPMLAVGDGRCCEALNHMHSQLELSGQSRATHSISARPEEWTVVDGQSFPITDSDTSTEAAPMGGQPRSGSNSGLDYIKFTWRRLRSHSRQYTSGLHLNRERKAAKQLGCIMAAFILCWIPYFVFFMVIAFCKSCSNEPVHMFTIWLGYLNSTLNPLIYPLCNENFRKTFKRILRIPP
Nature of the data set: Histamine receptor radioligand binding in washed rodent brain homogenates ([3H]pyrilamine). Further details: species or system guinea pig. The following applies: 23° C. for 40 min. As for the experimental part: Histamine receptor binding was conducted in washed rodent brain homogenates. Briefly, guinea pig forebrains (for H1 and H2 receptors) and rat forebrains (for H3 receptor), obtained from Pel-Freez (Rogers, Ark.) were homogenized in 20 ml ice-cold phosphate buffered saline (PBS; pH 7.4) using a Polytron tissue disrupter (setting 5-7 for 10 sec) and centrifuged at 40,000 g for 15 min on a Beckman J2-MC centrifuge. The supernatants were discarded, the tissue pellets re-homogenized in fresh PBS buffer and centrifuged as described above. The final pellets were dispersed in 50 mM sodium potassium phosphate buffer (pH 7.5) and kept frozen at −40° C. until used in the binding assays.
The H1 histamine receptor binding assays were performed according to previously published methods with minor modifications (Chang, R. S. L., Tran, V. T., and Snyder, S. H. J. Neurochem., 32:1653-1663, 1979, Hill, S. J., Young, J. M., and Marrian, D. H. Nature, 270:361-363, 1977, Gajtkowski, G. A., Norris, D. B., Rising, T. J., and Wood, T. P. Nature, 304:65-67,1983, Korte, A., Myers, J., Shih, N.-Y., Egan, R. W., and Clark, M. A. Biochem. Biophys. Res. Comm., 168:979-986, 1990 . Briefly, 50 μl of [3H]pyrilamine (1-2 nM); 24 Ci/mmol from NEN, Boston, Mass.), [3H]tiotidine (4-5 nM; 87 Ci/mmol from NEN, Boston, Mass.) or [3H]N-methyl histamine (1-2 nM; 84 Ci/mmol from NEN, Boston, Mass.) were incubated with 200 μl of 2.5-4.0 mg/ml of frozen-thawed brain homogenates in the presence or absence of unlabeled test compounds (50 μl; 10 pM-100 μM) in a total volume of 500 μl in polypropylene tubes. The non-specific binding was determined with 5 mM histamine. Drug dilutions and dispensing of assay components were performed using a computer-controlled automated system (Biomek; Beckman, Fullerton, Calif.). The assays were conducted at 23° C. for 40 min and then terminated by rapid filtration over Whatman GF/B glass fiber filters presoaked in 0.3% polyethyleneimine using a Tomtec cell harvester (Gaithersburg, Md.). The assay tubes were rinsed with 2×6 ml of ice-cold 50 mM TrisHCl buffer (pH 7.4). The filter-bound radioactivity was determined on a Wallac Beta-plate (Gaithersburg, Md.) solid scintillation counter at 40-50% efficiency. The competition binding data were analyzed using an iterative curve-fitting computer program as previously described Michel, A. D. and Whiting, R. L. Brit. J. Pharmacol., 83:460p, 1984, Sharif, N. A., Wong, E. H. F., Loury, D., Stefanich, E., Eglen, R. M., Michel, A. D., and Whiting, R. L. Brit. J. Pharmacol., 102:919-925, 1991,. The drug affinities (dissociation constants, Kis) were calculated according to the Cheng-Prussof equation (Cheng, Y.-C. and Prusoff, W. H. Biochem. Pharmacol., 22:3099-3018, 1973 ): Ki=IC50/(1+L/Kd) where IC50 is the concentration of the drug needed to produce 50% inhibition of the receptor binding, L is the radioligand concentration in the assay and Kd is the dissociation constant of the radioligand.

Where [4] appears, read: % inhibition at concentration 0.1%.
Setting [5] is: % inhibition at concentration 0.01%.

In general, melting point refers to the temperature, or range, at which the solid turns liquid. Consider `CCN(CC)CCC1CCN(CCc2ccc3c(c2)/C(=C\CCN(C)C)c2ccccc2CO3)CC1` (as salt: fumaric acid salt) [Example 7, {3-[2-{2-[4-(2-Diethylamino-ethyl)-piperidin-1-yl]-ethyl}-6H-6,11-dibenz[b,e]oxepin-(11Z)-ylidene]-propyl}-dimethylamine fumaric acid salt], for which the melting point was 65 to 67 °C.
What is called IC50 is the point on the concentration scale where inhibition reaches its midpoint. On to `CN(C)CC/C=C1/c2ccccc2COc2ccc(CC(=O)NC[C@@H]3CCCO3)cc21` [Example 1, (S)-2-{11-[3-Dimethylamino-prop-(Z)-ylidene]-6,11-dihydro-dibenz[b,e]-oxepin-2-yl}-N-tetrahydro-furan-2-ylmethyl)acetamide fumaric acid salt], for which, in data set [1], the IC50 is 61 µM.
`CCN(CC)CCC1CCN(C(=O)Cc2ccc3c(c2)/C(=C\CCN(C)C)c2ccccc2CO3)CC1` [Example 2, 1-[4-(2-Diethylamino-ethyl)-piperidin-1-yl]-2-{11-[3-dimethylamino-prop-(Z)-ylidene]-6,11-dihydro-dibenz[b,e]oxepin-2-yl}-ethanone fumaric acid salt]: the IC50 in data set [1] is 2 µM.
With `CN(C)CC/C=C1/c2ccccc2COc2ccc(CC(N)=O)cc21` [Example 3, 2-[11Z-(3-Dimethylaminopropylidene)-6,11-dihydrodibenzo[b,e]oxepin-2-yl]acetamide], in data set [2] (% inhibition at concentration printed as 0.018 (no % sign)), the “Histamine Induced Vascular Permeability ED50 or [Concentration] and (% inhibition)” value is recorded as 0.018 (59%). In addition, the IC50 was found to be 0.0022 µM in data set [3] and 480 µM in data set [1].
As to `CNC(=O)Cc1ccc2c(c1)/C(=C\CCN(C)C)c1ccccc1CO2` [Example 4, 2-[11Z-(3-Dimethylaminopropylidene)-6,11-dihydrodibenzo[b,e]oxepin-2-yl]-N-methylacetamide], the “Histamine Induced Vascular Permeability ED50 or [Concentration] and (% inhibition)” value in data set [2] (setting [4]) is reported as 0.1% (55%). The figures for the IC50 in data set [3] and in data set [1] were 0.0026 µM and 220 µM, respectively.
In the case of `CN(C)CC/C=C1/c2ccccc2COc2ccc(CC(=O)NCCO)cc21` [Example 5, 2-[11Z-(3-Dimethylaminopropylidene)-6,11-dihydrodibenzo[b,e]oxepin-2-yl]-N-(2-hydroxyethyl)acetamide], in data set [2] (setting [5]), the “Histamine Induced Vascular Permeability ED50 or [Concentration] and (% inhibition)” value is on record as 0.01% (43%). In addition, the IC50 worked out at 0.0013 µM in data set [3] and 770 µM in data set [1].
The like results for `CN(C)CC/C=C1/c2ccccc2COc2ccc(CC(=O)N(C)C)cc21` [Example 6, 2-[11Z-(3-Dimethylaminopropylidene)-6,11-dihydrodibenzo[b,e]oxepin-2-yl]-N,N-dimethylacetamide] were, in that order, 0.01% (56%), 0.0026 µM and 400 µM.
Turning to `CN(C)CC/C=C1/c2ccccc2COc2ccc(CCN)cc21` [Example 8, {3-[2-(2-Aminoethyl)-6H-dibenzo[b,e]oxepin-11-ylidene]propyl}-dimethylamine], the “Histamine Induced Vascular Permeability ED50 or [Concentration] and (% inhibition)” value in data set [2] (setting [4]) is 0.1% (32%). Besides, the IC50 in data set [1] stood at 2 µM.
For `CN(C)CC/C=C1/c2ccccc2COc2ccc(CCNS(C)(=O)=O)cc21` [Example 9, N-{2-[11-(3-Dimethylaminoprop-(Z)-ylidene)-6,11-dihydrodibenzo[b,e]-oxepin-2-yl]ethyl}-methanesulfonamide], the “Histamine Induced Vascular Permeability ED50 or [Concentration] and (% inhibition)” value in data set [2] (% inhibition at concentration 0.018%) is given as 0.018% (74%). Also, the IC50 worked out at 0.127 µM in data set [3] and 15 µM in data set [1].
Regarding `CC(=O)NCCc1ccc2c(c1)/C(=C\CCN(C)C)c1ccccc1CO2` [Example 10, N-[2-[11-(3-Dimethylaminoprop-(Z)-ylidene)-6,11-dihydrodibenzo[b,e]-oxepin-2-yl]ethyl}-acetamide], the “Histamine Induced Vascular Permeability ED50 or [Concentration] and (% inhibition)” value in data set [2] (setting [4]) is 0.1% (41%). The IC50 in data set [3] amounted to 0.054 µM; in data set [1], 13 µM.
Regarding `CN1CCC(=C2c3ccccc3COc3ccc(OCC(=O)O)cc32)CC1` [Example 11, [11-(1-Methylpiperidin-4-ylidene)-6,11-dihydrodibenzo[b,e]oxepin-2-yloxy]acetic acid hydrochloride], the IC50 in data set [1] was 220 µM.
